Tests used:
JAK-2 enzyme = JAK-2 enzyme (Homo sapiens, UniProt O60674); test: JAK2 Inhibition Assay; type: biochemical; settings: 12 μM ATP, 15 μM poly(Glu)4Tyr
Protocol: (§1) Compounds were screened for their ability to inhibit JAK3 using the assay shown below. Reactions were carried out in a kinase buffer containing 100 mM HEPES (pH 7.4), 1 mM DTT, 10 mM MgCl2, 25 mM NaCl, and 0.01% BSA. Substrate concentrations in the assay were 5 μM ATP (200 uCi/μmole ATP) and 1 μM poly(Glu)4Tyr. Reactions were carried out at 25° C. and 1 nM JAK3.
(§2) To each well of a 96 well polycarbonate plate was added 1.5 μl of a candidate JAK3 inhibitor along with 50 μl of kinase buffer containing […] and 10 μM ATP. This was then mixed and 50 μl of kinase buffer containing 2 nM JAK3 enzyme was added to start the reaction. After 20 minutes at room temperature (25° C.), the reaction was stopped with 50 μl of 20% trichloroacetic acid (TCA) that also contained 0.4 mM ATP. The entire contents of each well were then transferred to a 96 well glass fiber filter plate using a TomTek Cell Harvester. After washing, 60 μl of scintillation fluid was added and ^33P incorporation detected on a Perkin Elmer TopCount.
The assays were as described above in Example 3 except that JAK-2 enzyme was used, the final poly(Glu)4Tyr concentration was 15 μM, and final ATP concentration was 12 μM.

JAK3 = target: T1, JAK3 (Homo sapiens, UniProt P52333); test: JAK3 Inhibition Assay; type: biochemical; settings: 5 μM ATP, 1 μM poly(Glu)4Tyr, 1 nM JAK3, 25° C.
T1 sequence (P52333 1-1124): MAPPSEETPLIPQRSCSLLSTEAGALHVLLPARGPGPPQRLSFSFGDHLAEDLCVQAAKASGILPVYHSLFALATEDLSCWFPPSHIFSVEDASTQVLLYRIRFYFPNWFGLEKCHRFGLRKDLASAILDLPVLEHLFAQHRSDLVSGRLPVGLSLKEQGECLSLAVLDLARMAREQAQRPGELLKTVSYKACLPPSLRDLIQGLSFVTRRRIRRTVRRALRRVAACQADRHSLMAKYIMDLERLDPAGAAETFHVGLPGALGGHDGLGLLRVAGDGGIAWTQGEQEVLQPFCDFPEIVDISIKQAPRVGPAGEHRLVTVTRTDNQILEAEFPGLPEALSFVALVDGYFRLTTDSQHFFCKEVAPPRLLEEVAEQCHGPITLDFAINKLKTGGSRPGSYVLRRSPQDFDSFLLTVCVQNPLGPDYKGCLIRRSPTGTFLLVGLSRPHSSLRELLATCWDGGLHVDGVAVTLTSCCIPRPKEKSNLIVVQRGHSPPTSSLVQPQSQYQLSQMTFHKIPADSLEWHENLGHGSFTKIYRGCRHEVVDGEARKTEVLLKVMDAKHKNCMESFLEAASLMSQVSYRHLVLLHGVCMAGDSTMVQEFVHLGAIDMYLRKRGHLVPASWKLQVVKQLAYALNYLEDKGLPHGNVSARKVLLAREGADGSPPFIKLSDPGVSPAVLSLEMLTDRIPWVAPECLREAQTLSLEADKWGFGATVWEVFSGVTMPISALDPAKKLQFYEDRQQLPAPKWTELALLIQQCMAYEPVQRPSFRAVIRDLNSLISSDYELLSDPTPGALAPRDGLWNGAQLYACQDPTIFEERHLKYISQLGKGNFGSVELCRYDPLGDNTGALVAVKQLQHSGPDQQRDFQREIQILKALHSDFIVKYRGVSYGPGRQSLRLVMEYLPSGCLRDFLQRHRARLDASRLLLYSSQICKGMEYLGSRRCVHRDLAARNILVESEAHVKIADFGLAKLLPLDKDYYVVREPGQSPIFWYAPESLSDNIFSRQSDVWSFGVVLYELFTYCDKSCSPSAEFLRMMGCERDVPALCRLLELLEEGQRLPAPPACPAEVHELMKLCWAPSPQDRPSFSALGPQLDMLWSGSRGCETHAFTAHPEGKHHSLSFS
Protocol: as §1, §2

Sequence of JAK-2 enzyme (O60674 whole entry): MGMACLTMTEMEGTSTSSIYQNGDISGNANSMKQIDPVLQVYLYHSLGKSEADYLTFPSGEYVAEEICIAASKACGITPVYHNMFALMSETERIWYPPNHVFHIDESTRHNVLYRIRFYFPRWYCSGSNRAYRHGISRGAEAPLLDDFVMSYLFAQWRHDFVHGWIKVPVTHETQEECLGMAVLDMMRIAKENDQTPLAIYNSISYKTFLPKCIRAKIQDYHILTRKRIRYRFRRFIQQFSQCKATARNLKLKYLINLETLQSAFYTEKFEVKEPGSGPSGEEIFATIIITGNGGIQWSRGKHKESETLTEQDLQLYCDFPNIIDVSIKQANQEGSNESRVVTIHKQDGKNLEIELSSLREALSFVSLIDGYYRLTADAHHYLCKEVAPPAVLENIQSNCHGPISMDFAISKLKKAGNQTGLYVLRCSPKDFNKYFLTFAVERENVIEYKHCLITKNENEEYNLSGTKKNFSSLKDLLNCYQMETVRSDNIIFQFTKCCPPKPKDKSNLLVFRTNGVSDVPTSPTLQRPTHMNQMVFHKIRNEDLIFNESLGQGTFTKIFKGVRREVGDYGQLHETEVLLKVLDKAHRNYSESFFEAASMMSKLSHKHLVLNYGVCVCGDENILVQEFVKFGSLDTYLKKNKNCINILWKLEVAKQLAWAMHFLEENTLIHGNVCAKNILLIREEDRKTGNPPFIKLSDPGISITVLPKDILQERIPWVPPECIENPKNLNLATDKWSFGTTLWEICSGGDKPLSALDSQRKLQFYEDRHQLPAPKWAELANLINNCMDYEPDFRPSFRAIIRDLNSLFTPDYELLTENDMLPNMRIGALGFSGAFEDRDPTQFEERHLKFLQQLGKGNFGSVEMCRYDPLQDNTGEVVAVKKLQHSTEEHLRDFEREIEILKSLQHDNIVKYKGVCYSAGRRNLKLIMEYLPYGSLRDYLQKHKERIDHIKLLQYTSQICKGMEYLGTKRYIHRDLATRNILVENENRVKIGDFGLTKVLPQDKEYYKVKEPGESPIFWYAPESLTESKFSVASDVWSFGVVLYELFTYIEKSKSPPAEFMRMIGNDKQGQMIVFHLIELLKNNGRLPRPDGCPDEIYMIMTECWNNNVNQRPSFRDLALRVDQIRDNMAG

Compound | Ki (JAK-2 enzyme) [nM] | Ki (JAK3) [nM]
CC(C)C[C@@H](Nc1nc(-c2cn(C)c3ncc(Cl)cc23)ncc1F)C(=O)NCC(F)(F)F [Compound 22] | ≥ 500 | ≥ 100
COC(=O)c1cc(N2CCC[C@@H]2C(=O)NCC(F)(F)F)nc(-c2c[nH]c3ncc(Cl)cc23)n1 [Compound 35] | ≥ 500 | ≥ 100
O=C(O)c1cnc(-c2c[nH]c3ncc(Cl)cc23)nc1N1CCC[C@@H]1C(=O)NCC(F)(F)F [Compound 56] | ≥ 500 | ≥ 100
CCOC(=O)c1cnc(-c2c[nH]c3ncc(Cl)cc23)nc1N1CCC[C@@H]1C(=O)NCC(F)(F)F [Compound 57] | ≥ 500 | 
O=C(NC1CC1)[C@H]1CCCN1c1nc(-c2c[nH]c3ncc(Cl)cc23)ncc1F [Compound 177] |  | ≥ 100
CCCNC(=O)C(C)(C)Nc1nc(-c2c[nH]c3ncc(Cl)cc23)nc2cc(OC)c(OC)cc12 [Compound 223] |  | ≥ 100
CNC(=O)c1cc(N2CCC[C@@H]2C(=O)NCC(F)(F)F)nc(-c2c[nH]c3ncc(Cl)cc23)n1 [Compound 317] | ≥ 500 | ≥ 100
CCNC(=O)c1cc(N2CCC[C@@H]2C(=O)NCC(F)(F)F)nc(-c2c[nH]c3ncc(Cl)cc23)n1 [Compound 318] | ≥ 5000 | ≥ 100
CCCNC(=O)c1cc(N2CCC[C@@H]2C(=O)NCC(F)(F)F)nc(-c2c[nH]c3ncc(Cl)cc23)n1 [Compound 319] | ≥ 5000 | ≥ 2000
O=C(NC1CC1)c1cc(N2CCC[C@@H]2C(=O)NCC(F)(F)F)nc(-c2c[nH]c3ncc(Cl)cc23)n1 [Compound 320] | ≥ 500 | ≥ 100
CC(C)NC(=O)[C@H]1CCCN1c1nc(-c2c[nH]c3ncc(Cl)cc23)ncc1F [Compound 322] |  | ≥ 100
CC(C)(Nc1nc(-c2c[nH]c3ncc(Cl)cc23)ncc1C#N)C(=O)NCCC(F)(F)F [Compound 326] |  | ≥ 100
CCN(C)C(=O)[C@H]1CCCN1c1nc(-c2c[nH]c3ncc(Cl)cc23)ncc1F [Compound 336] | ≥ 500 | ≥ 100
CCN(C)C(=O)[C@H]1CCCN1c1ccnc(-c2c[nH]c3ncc(Cl)cc23)n1 [Compound 337] |  | ≥ 100
CCOC(=O)c1cnc(-c2c[nH]c3ncc(Cl)cc23)nc1N1CCC[C@@H]1C(=O)N(C)CC(F)(F)F [Compound 338] | ≥ 500 | ≥ 100
CN(CC(F)(F)F)C(=O)[C@H]1CCCN1c1nc(-c2c[nH]c3ncc(Cl)cc23)ncc1O [Compound 340] | ≥ 500 | ≥ 100
CCC(CC)(Nc1ccnc(-c2c[nH]c3ncccc23)n1)C(=O)NCC(F)(F)F [Compound 348] | ≥ 500 | 
COc1cc2nc(-c3c[nH]c4ncccc34)nc(NC(C)(C)C(=O)NCCF)c2cc1OC [Compound 388] |  | ≥ 100
COc1cc2nc(-c3c[nH]c4ncccc34)nc(NC(C)(C)C(=O)NCC(F)F)c2cc1OC [Compound 390] |  | ≥ 100

Continued, values first:

Ki (JAK-2 enzyme) [nM] | Ki (JAK3) [nM] | Compound
≥ 500 |  | C[C@H]1CCN(c2nc(-c3c[nH]c4ncc(Cl)cc34)ncc2F)[C@@H]1C(=O)NCC(F)(F)F [Compound 9]
≥ 500 |  | O=C(NCC(F)(F)F)C1COCCN1c1nc(-c2c[nH]c3ncc(Cl)cc23)ncc1F (stereo not drawn) [Compound 38]
≥ 5000 | ≥ 2000 | O=C(NCC(F)(F)F)[C@@H]1CCCCN1c1nc(-c2c[nH]c3ncc(Cl)cc23)ncc1F [Compound 68]
≥ 500 | ≥ 100 | O=C(NCC(F)(F)F)[C@@H]1CCCN1c1nc(-c2c[nH]c3ncccc23)ncc1F [Compound 310]
≥ 500 | ≥ 100 | O=C(NCC(F)(F)F)[C@@H]1CNCCN1c1nc(-c2c[nH]c3ncccc23)ncc1F [Compound 321]
≥ 500 | ≥ 100 | CN(CC(F)(F)F)C(=O)[C@H]1CCCN1c1nc(-c2c[nH]c3ncccc23)ncc1O [Compound 339]
≥ 500 | ≥ 100 | O=C(NCC(F)(F)F)[C@H]1C[C@H](O)CN1c1nc(-c2c[nH]c3ncccc23)ncc1F [Compound 351]
≥ 500 | ≥ 100 | CN(c1nc(-c2c[nH]c3ncccc23)ncc1F)C1(C(=O)NCC(F)(F)F)CC1 [Compound 356]
≥ 500 | ≥ 100 | CC(C)[C@@H](Nc1nc(-c2c[nH]c3ncccc23)ncc1F)C(=O)NCC(F)(F)F [Compound 367]
 | ≥ 100 | CC(C)CC(=O)N1CCN(c2ccnc(-c3c[nH]c4ncccc34)n2)[C@@H](C(=O)NCC(F)(F)F)C1 [Compound 369]
 | ≥ 100 | CC(C)(C)CC(=O)N1CCN(c2ccnc(-c3c[nH]c4ncccc34)n2)[C@@H](C(=O)NCC(F)(F)F)C1 [Compound 370]
≥ 500 |  | CCCNC(=O)N1CCN(c2ccnc(-c3c[nH]c4ncccc34)n2)[C@@H](C(=O)NCC(F)(F)F)C1 [Compound 372]

Source: patent US8163917B2, “Azaindoles useful as inhibitors of Janus kinases” (Vertex Pharmaceuticals Incorporated, priority 2006, dated 2012)
